Experimental data from patent US9878991B2, “TRPV1 antagonists including dihydroxy substituent and uses thereof” (Purdue Pharma L.P., priority 2007, dated 2018).

Tests used:
[1] = Plasma concentration after administration to an animal; format: in vivo
[2] = tested on: TRPV1 receptor-mediated pain; assay: Capsaicin-induced eye wipe test; format: in vivo; details: rat; for eye wipe value: pre-administration value 24
Procedure: Each experiment uses rats weighing between 200-260 g at the start of the experiment. The rats are group-housed and have free access to food and water at all times, except prior to oral administration of a compound of formula I when food is removed for 16 hours before dosing. A control group acts as a comparison to rats treated with a compound of formula I. The control group is administered the carrier for the compound of formula I. The volume of carrier administered to the control group is the same as the volume of carrier and compound of formula I administered to the test group.
To assess the effect of compounds of formula I on TRPV1 receptor-mediated pain, the capsaicin-induced eye wipe test is used (N. R. Gavva et al., “AMG 9810 [(E)-3-(4-t-Butylphenyl)-N-(2,3-dihydrobenzo[b][1,4]dioxin-6-yl)acrylamide], a Novel Vanilloid Receptor 1 (TRPV1) Antagonist with Antihyperalgesic Properties”, J. Pharmacol. Exp. Ther. 313:474-484 (2005)). The eye wipe test is a reliable high-throughput test of the effect of TRPV1 antagonists. Rats are given a single injection of 1, 3, 10 or 30 mg/kg of either a compound of formula I; 30 mg/kg of a control selected from Celebrex, indomethacin or naproxen; or carrier. At 1, 3 or 5 hours after drug administration, 3 μL of a 100 μM capsaicin solution (in 10% EtOH/PBS) is instilled in one eye of each animal with a pipette. The number of forelimb movements (touching or wiping of the capsaicin-treated eye) are counted during a 2 minute period following instillation of capsaicin into the eye.

Compound: O=C(Nc1ccc(C(F)(F)F)cc1)N1CC=C(c2ncc([C@H](O)CO)cc2Cl)CC1 [Compound Z1, (S)-3-Chloro-5-(1,2-dihydroxy-ethyl)-3′,6′-dihydro-2′H-[2,4′]bipyridinyl-1′-carboxylic acid (4-trifluoromethyl-phenyl)amide]
- maximum plasma concentration relative to the maximum for compound 200 [1]: 2.5 times

Compound: O=C(Nc1ccc(C(F)(F)F)cc1)N1CCC(F)(c2ncc([C@H](O)CO)cc2Cl)CC1 [Compound N1, (S)-4-(3-chloro-5-(1,2-dihydroxyethyl)pyridin-2-yl)-4-fluoro-N-(4-(trifluoromethyl)phenyl)piperidine-1-carboxamide]
- eye wipe value ([2]; 1 hour after administration): 3
- decrease of eye wipes relative to pre-administration value ([2]; 3 hours after administration): 96%
- eye wipe value ([2]; 3 hours after administration): 1
- decrease of eye wipes relative to pre-administration value ([2]; 5 hours after administration): 92%
- eye wipe value ([2]; 5 hours after administration): 2

Compound: CC(O)(CO)c1cnc(C2=CCN(C(=O)Nc3ccc(C(F)(F)F)cc3)CC2)c(Cl)c1 (stereo not shown) [Compound R6]
- maximum plasma concentration relative to the maximum for compound 200 [1]: 5.3 times
